# Data: ChEMBL document CHEMBL5113546, “Novel SMARCA Degraders for Treating Cancer” (ACS Med Chem Lett, 2022)
# Molecular target: SWI/SNF-related matrix-associated actin-dependent regulator of chromatin subfamily A member 2 (Homo sapiens, UniProt P51531)
# Assay: Induction of SMARCA2 degradation in human A549 cells measured after 24 hrs by MSD assay
# Format: cell-based
# SWI/SNF-related matrix-associated actin-dependent regulator of chromatin subfamily A member 2, sequence (P51531 whole entry): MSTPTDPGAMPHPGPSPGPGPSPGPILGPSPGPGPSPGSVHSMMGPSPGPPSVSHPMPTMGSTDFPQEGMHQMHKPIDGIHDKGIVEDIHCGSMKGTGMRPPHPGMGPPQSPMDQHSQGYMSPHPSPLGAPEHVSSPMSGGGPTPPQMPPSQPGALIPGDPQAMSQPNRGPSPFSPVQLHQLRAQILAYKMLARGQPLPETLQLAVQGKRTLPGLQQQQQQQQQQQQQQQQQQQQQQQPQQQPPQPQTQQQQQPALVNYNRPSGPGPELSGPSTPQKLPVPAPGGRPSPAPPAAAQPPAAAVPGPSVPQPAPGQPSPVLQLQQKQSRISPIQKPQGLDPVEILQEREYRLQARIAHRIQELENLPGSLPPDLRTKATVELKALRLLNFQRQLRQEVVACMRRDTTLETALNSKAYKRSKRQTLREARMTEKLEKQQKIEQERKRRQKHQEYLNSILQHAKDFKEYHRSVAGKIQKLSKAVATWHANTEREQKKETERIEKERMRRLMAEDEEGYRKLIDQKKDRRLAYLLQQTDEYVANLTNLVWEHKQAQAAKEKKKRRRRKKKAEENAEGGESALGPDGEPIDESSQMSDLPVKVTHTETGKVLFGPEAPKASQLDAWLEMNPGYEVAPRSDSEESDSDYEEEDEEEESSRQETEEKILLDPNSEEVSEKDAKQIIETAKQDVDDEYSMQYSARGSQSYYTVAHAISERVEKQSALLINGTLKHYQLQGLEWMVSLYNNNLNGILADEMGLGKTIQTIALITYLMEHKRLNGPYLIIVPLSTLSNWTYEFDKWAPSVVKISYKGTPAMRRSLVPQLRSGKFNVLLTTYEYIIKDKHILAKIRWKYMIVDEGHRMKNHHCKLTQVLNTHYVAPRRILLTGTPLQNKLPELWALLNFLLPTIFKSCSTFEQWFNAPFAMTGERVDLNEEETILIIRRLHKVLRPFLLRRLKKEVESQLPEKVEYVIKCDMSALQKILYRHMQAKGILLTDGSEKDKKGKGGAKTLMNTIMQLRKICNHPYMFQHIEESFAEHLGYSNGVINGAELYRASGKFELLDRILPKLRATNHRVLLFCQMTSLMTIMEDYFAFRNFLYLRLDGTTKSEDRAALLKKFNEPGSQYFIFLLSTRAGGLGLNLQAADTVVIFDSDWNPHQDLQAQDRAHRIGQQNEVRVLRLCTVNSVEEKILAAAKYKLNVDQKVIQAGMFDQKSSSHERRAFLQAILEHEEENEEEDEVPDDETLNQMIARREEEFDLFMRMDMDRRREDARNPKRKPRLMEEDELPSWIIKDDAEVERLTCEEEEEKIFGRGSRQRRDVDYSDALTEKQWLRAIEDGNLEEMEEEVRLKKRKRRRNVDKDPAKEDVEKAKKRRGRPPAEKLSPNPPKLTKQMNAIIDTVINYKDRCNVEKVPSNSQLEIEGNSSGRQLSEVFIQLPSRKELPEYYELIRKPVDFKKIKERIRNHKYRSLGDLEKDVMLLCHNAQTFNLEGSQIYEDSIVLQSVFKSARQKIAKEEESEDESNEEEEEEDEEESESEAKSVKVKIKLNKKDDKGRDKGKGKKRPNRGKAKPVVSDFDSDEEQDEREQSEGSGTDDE
row,Structure (SMILES),DC50 [nM]
1,Cc1ncsc1-c1ccc(CNC(=O)[C@@H]2C[C@@H](O)CN2C(=O)[C@@H](NC(=O)[C@H]2CC3(C2)C[C@H](N2CCN(c4cnc(N5C6CCC5CN(c5cc(-c7ccccc7O)nnc5N)C6)nc4)CC2)C3)C(C)(C)C)cc1 (stereo partly specified),< 100
2,Cc1ncsc1-c1ccc([C@H](C)NC(=O)[C@@H]2C[C@@H](O)CN2C(=O)[C@@H](NC(=O)[C@H]2CC3(C2)C[C@H](N2CCC(c4cnc(N5C6CCC5CN(c5cc(-c7ccccc7O)nnc5N)C6)nc4)CC2)C3)C(C)(C)C)cc1 (stereo partly specified),< 100
3,Cc1ncsc1-c1ccc(CNC(=O)[C@@H]2C[C@@H](O)CN2C(=O)C(c2cc(OCCCCN3CCC(c4cnc(N5C6CCC5CN(c5cc(-c7ccccc7O)nnc5N)C6)nc4)CC3)no2)C(C)C)cc1 (stereo partly specified),< 100
4,Cc1ncsc1-c1ccc(C2(NC(=O)[C@@H]3C[C@@H](O)CN3C(=O)[C@@H](NC(=O)[C@H]3CC4(C3)C[C@H](N3CCC(c5cnc(N6C7CCC6CN(c6cc(-c8ccccc8O)nnc6N)C7)nc5)CC3)C4)C(C)(C)C)CC2)cc1 (stereo partly specified),< 100
5,Cc1ncsc1-c1ccc(CNC(=O)[C@@H]2C[C@@H](O)CN2C(=O)C(c2cc(OCCN3CCC(c4cnc(N5C6CCC5CN(c5cc(-c7ccccc7O)nnc5N)C6)nc4)CC3)no2)C(C)C)cc1 (stereo partly specified),< 100
6,Cc1ncsc1-c1ccc(CNC(=O)[C@@H]2C[C@@H](O)CN2C(=O)[C@@H](NC(=O)[C@H]2CC3(CC[C@H](N4CCC(c5cnc(N6C7CCC6CN(c6cc(-c8ccccc8O)nnc6N)C7)nc5)CC4)CC3)C2)C(C)(C)C)cc1 (stereo partly specified),< 100
